Laboratory results: the NIST ThermoML archive (doi:10.1016/j.jct.2013.10.025)
Numbers after ± are expanded uncertainties.

Test: xn = mol fraction of the nth substance listed
Settings: 101 kPa, Liquid; for viscosity: Capillary tube (Ostwald / Ubbelohde) method; for speed of sound: Sing-around technique in a fixed-path interferometer; for mass density: Vibrating tube method

CCCCCCO [hexan-1-ol] + C1CCOC1
Settings | mass density [kg/m3] | speed of sound [m/s] | viscosity [mPa·s]
298.15 K, x2 = 0.0538 | 817.624 ± 0.24 | 1301.1 ± 1.5 | 3.778 ± 0.36
298.15 K, x2 = 0.1144 | 820.377 ± 0.24 | 1298.8 ± 1.5 | 3.16 ± 0.36
298.15 K, x2 = 0.1511 | 822.105 ± 0.24 | 1297 ± 1.5 | 2.887 ± 0.36
298.15 K, x2 = 0.2009 | 824.537 ± 0.24 | 1295 ± 1.5 | 2.477 ± 0.36
298.15 K, x2 = 0.256 | 827.327 ± 0.24 | 1292.7 ± 1.5 | 2.133 ± 0.36
298.15 K, x2 = 0.3156 | 830.492 ± 0.24 | 1291 ± 1.5 | 1.855 ± 0.36
298.15 K, x2 = 0.4199 | 836.41 ± 0.24 | 1287.7 ± 1.5 | 1.453 ± 0.36
298.15 K, x2 = 0.5013 | 841.407 ± 0.24 | 1285.1 ± 1.5 | 1.199 ± 0.36
298.15 K, x2 = 0.6029 | 848.183 ± 0.24 | 1282.2 ± 1.5 | 0.986 ± 0.36
298.15 K, x2 = 0.7071 | 855.823 ± 0.24 | 1279.3 ± 1.5 | 0.786 ± 0.36
298.15 K, x2 = 0.8042 | 863.667 ± 0.24 | 1277.1 ± 1.5 | 0.661
298.15 K, x2 = 0.9057 | 872.745 ± 0.23 | 1276.4 ± 1.5 | 0.559
303.15 K, x2 = 0.0538 | 813.958 ± 0.24 | 1284.1 ± 1.5 | 3.22 ± 0.36
303.15 K, x2 = 0.1144 | 816.633 ± 0.24 | 1281.5 ± 1.5 | 2.737 ± 0.36
303.15 K, x2 = 0.1511 | 818.311 ± 0.24 | 1279.5 ± 1.5 | 2.516 ± 0.36
303.15 K, x2 = 0.2009 | 820.671 ± 0.24 | 1277.3 ± 1.5 | 2.148 ± 0.36
303.15 K, x2 = 0.256 | 823.388 ± 0.24 | 1275.1 ± 1.5 | 1.901 ± 0.36
303.15 K, x2 = 0.3156 | 826.467 ± 0.24 | 1272.8 ± 1.5 | 1.633 ± 0.36
303.15 K, x2 = 0.4199 | 832.217 ± 0.24 | 1269 ± 1.5 | 1.325 ± 0.36
303.15 K, x2 = 0.5013 | 837.071 ± 0.24 | 1265.9 ± 1.5 | 1.107 ± 0.36
303.15 K, x2 = 0.6029 | 843.655 ± 0.24 | 1262.2 ± 1.5 | 0.904 ± 0.36
303.15 K, x2 = 0.7071 | 851.067 ± 0.24 | 1258.5 ± 1.5 | 0.719
303.15 K, x2 = 0.8042 | 858.694 ± 0.24 | 1255.6 ± 1.5 | 0.619
303.15 K, x2 = 0.9057 | 867.506 ± 0.23 | 1254 ± 1.5 | 0.536
308.15 K, x2 = 0.0538 | 810.268 ± 0.24 | 1267.1 ± 1.5 | 2.728 ± 0.36
308.15 K, x2 = 0.1144 | 812.863 ± 0.24 | 1264 ± 1.5 | 2.373 ± 0.36
308.15 K, x2 = 0.1511 | 814.495 ± 0.24 | 1261.9 ± 1.5 | 2.13 ± 0.36
308.15 K, x2 = 0.2009 | 816.788 ± 0.24 | 1259.4 ± 1.5 | 1.886 ± 0.36
308.15 K, x2 = 0.256 | 819.426 ± 0.24 | 1257.1 ± 1.5 | 1.598 ± 0.36
308.15 K, x2 = 0.3156 | 822.411 ± 0.24 | 1254.3 ± 1.5 | 1.422 ± 0.36
308.15 K, x2 = 0.4199 | 827.995 ± 0.24 | 1249.8 ± 1.5 | 1.127 ± 0.36
308.15 K, x2 = 0.5013 | 832.704 ± 0.24 | 1246 ± 1.5 | 0.95 ± 0.36
308.15 K, x2 = 0.6029 | 839.095 ± 0.24 | 1241.4 ± 1.5 | 0.796 ± 0.36
308.15 K, x2 = 0.7071 | 846.295 ± 0.24 | 1236.7 ± 1.5 | 0.64
308.15 K, x2 = 0.8042 | 853.69 ± 0.24 | 1232.5 ± 1.5 | 0.566
308.15 K, x2 = 0.9057 | 862.242 ± 0.24 | 1230 ± 1.5 | 0.47
313.15 K, x2 = 0.0538 | 806.544 ± 0.24 | 1250.3 ± 1.5 | –
313.15 K, x2 = 0.1144 | 809.062 ± 0.24 | 1246.9 ± 1.5 | –
313.15 K, x2 = 0.1511 | 810.645 ± 0.24 | 1244.7 ± 1.5 | –
313.15 K, x2 = 0.2009 | 812.872 ± 0.24 | 1242.7 ± 1.5 | –
313.15 K, x2 = 0.256 | 815.429 ± 0.24 | 1239.8 ± 1.5 | –
313.15 K, x2 = 0.3156 | 818.321 ± 0.24 | 1236.7 ± 1.5 | –
313.15 K, x2 = 0.4199 | 823.739 ± 0.24 | 1231.7 ± 1.5 | –
313.15 K, x2 = 0.5013 | 828.306 ± 0.24 | 1227.5 ± 1.5 | –
313.15 K, x2 = 0.6029 | 834.502 ± 0.24 | 1222.5 ± 1.5 | –
313.15 K, x2 = 0.7071 | 841.483 ± 0.24 | 1217 ± 1.5 | –
313.15 K, x2 = 0.8042 | 848.648 ± 0.24 | 1212.4 ± 1.5 | –
313.15 K, x2 = 0.9057 | 856.935 ± 0.24 | 1209 ± 1.5 | –
